# The supplement of paper PMC11208160
# Assay: recombinant barcode read abundance after kanamycin selection (control-corrected) (log10(CPM+1)); higher = more efficient recombination; sequences stand for … in AGTGCAGAGAAAATCGGCCAGTTTTCTCTGCCTGCAGTCCGCATGCCGT…AGATTTATGCAGCGGACTGCCTTTCTCCCAAAGTGATAAACCGGACAGTATCATGGACCGGTTTTCCCGGTAATCCGTATTTGCAAGGTTGGTTTCACT; site = the 11-nt target
# Summary of the method: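 Recombination efficiency was calculated from barcode counts at recombinant junctions, normalized to counts per million, averaged and corrected by the control. Each value is given as log10(CPM+1). The constructs were Gibson-cloned oligos (promoter, target, barcode, J23119-driven first 104 bridge RNA bases) in a vector with the remaining 73 bp and a T7-inducible recombinase, co-electroporated into E. coli with a donor plasmid and plated in duplicate on chloramphenicol/ampicillin LB agar (control) or chloramphenicol/ampicillin/kanamycin with 0.1 mM IPTG.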
# 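Further: IS621 recombinase and bridge RNA in Escherichia coli cells.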
row,Sequence,recombinant barcode read abundance (log10)
1,TGGGTGACTTGGGTTCTAACCTGTTGCCT (site GCCTGCCCTCA),0.422
2,TGGGTGACTTGGGTTCTAACCTGTTGCCT (site TGGGTGACTAG),0.057
3,TGGTAACCTTGGGTTCTAACCTGTTGCCT (site AGGTAACCTAG),0.0194
4,TGGTAACCTTGGGTTCTAACCTGTTGCCT (site CGGTAACCTAG),0.172
5,TGGTAACCTTGGGTTCTAACCTGTTGCCT (site GGGTAACCTAG),0.148
6,TGGTAACCTTGGGTTCTAACCTGTTGCCT (site TGGTAACCTAG),0.571
7,TGGTATGCTTGGGTTCTAACCTGTTGCCT (site TGGTATACTAG),0.5
8,TGGTATGCTTGGGTTCTAACCTGTTGCCT (site TGGTATCCTAG),0.0685
9,TGGTATGCTTGGGTTCTAACCTGTTGCCT (site TGGTATGCTAG),1.39
10,TGGTATGCTTGGGTTCTAACCTGTTGCCT (site TGGTATTCTAG),0
11,TGGTCTACTTGGGTTCTAACCTGTTGCTT (site TGATCTACTAA),0
12,TGGTCTACTTGGGTTCTAACCTGTTGCTT (site TGCTCTACTAA),0.0743
13,TGGTCTACTTGGGTTCTAACCTGTTGCTT (site TGGTCTACTAA),0.154
14,TGGTCTACTTGGGTTCTAACCTGTTGCTT (site TGTTCTACTAA),0.0113
15,TGGTTCGCTTGGGTTCTAACCTGTTGCCT (site TGGTACGCTAG),0.0339
16,TGGTTCGCTTGGGTTCTAACCTGTTGCCT (site TGGTCCGCTAG),0.0365

row,Sequence,recombinant barcode read abundance (log10)
1,TGGTTCGCTTGGGTTCTAACCTGTTGCCT (site TGGTGCGCTAG),0.0185
2,TGGTTCGCTTGGGTTCTAACCTGTTGCCT (site TGGTTCGCTAG),1.43
3,TGTAATACTTGGGTTCTAACCTGTTGCCT (site TGTAATACTAG),0.0354
4,TGTAATACTTGGGTTCTAACCTGTTGCCT (site TGTAATCCTAG),0.0997
5,TGTAATACTTGGGTTCTAACCTGTTGCCT (site TGTAATGCTAG),0.147
6,TGTAATACTTGGGTTCTAACCTGTTGCCT (site TGTAATTCTAG),0.121
7,TGTACCTCTTGGGTTCTAACCTGTTGCCT (site TGTACCTCTAG),0.522
8,TGTACCTCTTGGGTTCTAACCTGTTGCCT (site TGTCCCTCTAG),0.00782
9,TGTACCTCTTGGGTTCTAACCTGTTGCCT (site TGTGCCTCTAG),0.0235
10,TGTACCTCTTGGGTTCTAACCTGTTGCCT (site TGTTCCTCTAG),0.0524
11,TGTACGCCTTGGGTTCTAACCTGTTGCCT (site GAGGTAACTGT),0.0511
12,TGTACGCCTTGGGTTCTAACCTGTTGCCT (site TGTACGCCTAG),0.0173
13,TGTAGGACTTGGGTTCTAACCTGTTGCCT (site AGTAGGACTAG),0.0549
14,TGTAGGACTTGGGTTCTAACCTGTTGCCT (site CGTAGGACTAG),0.142
15,TGTAGGACTTGGGTTCTAACCTGTTGCCT (site GGTAGGACTAG),0.0264
16,TGTAGGACTTGGGTTCTAACCTGTTGCCT (site TGTAGGACTAG),0.553
